According to EP2266984A1, “Pyrido[2,3-d]pyrimidines as Wnt antagonists for treatment of cancer and arthritis” (Deutsches Krebsforschungszentrum Stiftung des öffentlichen …, priority 2009, dated 2010):

Tests used:
[1] = tested on: Wnt signalling pathway; experiment: Wnt-sensitive reporter gene assay (6xTCF-luciferase, pTOP-FLASH) in Hek293T cells; format: cell-based; conditions: for Normalized Wnt pathway inhibitory activity: 24 h
Experimental: To screen for small-molecule modulators of the Wnt signalling pathway, a reporter gene based assay describing the modulation of the TCF4 transcription factor was used. More specifically 4000 Hek293T cells were seeded into 384 high density plates. 24h after seeding a Wnt-sensitive reporter (6xTCF-luciferase (Firefly) (pTOP-FLASH; "Armadillo coactivates transcription driven by the product of the Drosophila segment polarity gene dTCF", Cell, 1997, 88(6), pages 789-99)) and constitutively expressed control reporter (Renilla luciferase pCMV-RL) were transfected into Hek293T. Wnt signaling was stimulated by cotransfecting mouse Wnt1, mouse Frizzled 8 and human LRP6 according to "Casein kinase 1 gamma couples Wnt receptor activation to cytoplasmic signal transduction", Nature, 2005, 438(7069), pages 867-872. 24 h after pathway stimulation compounds were added at a concentration of 10 microM and allowed to incubate for 24 h. For the evaluation of the IC50 the compound was applied in increasing concentrations yielding final concentrations per well of 5nM - 100 microM.

[2] = tested on: HS68; experiment: Cell line specific cytotoxicity, count of Hoechst labeled nuclei, HS68 fibroblasts; format: cell-based, human; conditions: normal cells, at least 72 hr
Experimental: For examination of cell line-specific cytotoxicity, compounds were applied to human colorectal cancer cells (HCT116, denoted (1); SW480, denoted (2); Dld-1, denoted (3)) and human fibroblasts (HFF-1, denoted (4); HS-68, denoted (5)), cultured in Mc Coy's (1) and Dulbecco's Modified Eagles Medium ((2)-(5)), supplemented with 10% ((1)-(3)) and 20% ((4), (5)) fetal calf serum and 1% penicillin/streptomycin. Cells were grown in T75 flasks at 37 °C, 5% CO2 and trypsinized when 60-80% confluent by adding 2 ml of 0.25% Trypsin-EDTA solution. Cells were then re-suspended into culture medium yielding approx. 750 cells, suspended in 45 microl medium, were plated into each well of a black 384-well plate for fluorescence imaging experiments. […] Compound incubation was terminated by (a) fixation and (b) permeabilisation of cells, followed by (c) fluorescence labeling of cell nuclei for cytometric quantification or by immunocytochemistry for microscopic evaluation of cell morphology. The three steps were performed by replacing the solution of the previous step in each well of a 384-well plate by (a) 30 microl PBS (phosphate buffered saline) containing 5% PFA (paraformaldehyde), (b) 30 microl PBS containing 0.2% TritonX-100 and (c) 10 microl PBS containing Hoechst-33342 for cytometry or Hoechst-33342, FITC-(fluorescein isothiocyanate-)labeled alpha-tubulin antibodies and TRITC-(tetramethylrhodamine isothiocyanate-)labeled phalloidin for microscopy. Solutions were incubated for 15 (a,b) and 30 min (c) in the dark at room temperature. Cells were washed twice between each step with 30 microl PBS. The assay system was miniaturized and adapted to automated workflow using liquid-handling robotics.
Cell line-specific cytotoxicity was quantified by counting the number of Hoechst labeled nuclei per well of a 384-well plate using a plate cytometer. Data obtained with the cytometer was analysed using standard data analysis software.
Identified hits were further evaluated by visual inspection of fluorescence micrographs obtained from imaging using a conventional fluorescence microscope.

[3] = tested on: human colon carcinoma cells HCT116; experiment: Antiproliferative activity against HCT116, count of Hoechst labeled nuclei; format: cell-based; conditions: HCT116 colon carcinoma cells
Experimental: For examination of cell line-specific cytotoxicity, compounds were applied to human colorectal cancer cells (HCT116, denoted (1); SW480, denoted (2); Dld-1, denoted (3)) and human fibroblasts (HFF-1, denoted (4); HS-68, denoted (5)), cultured in Mc Coy's (1) and Dulbecco's Modified Eagles Medium ((2)-(5)), supplemented with 10% ((1)-(3)) and 20% ((4), (5)) fetal calf serum and 1% penicillin/streptomycin. Cells were grown in T75 flasks at 37 °C, 5% CO2 and trypsinized when 60-80% confluent by adding 2 ml of 0.25% Trypsin-EDTA solution. Cells were then re-suspended into culture medium yielding approx. 750 cells, suspended in 45 microl medium, were plated into each well of a black 384-well plate for fluorescence imaging experiments. 24 - 36 hr later 5 microl compound solution (100 microM compound dissolved in ultra pure water containing 1% DMSO), were added to achieve a final concentration of 10 microM and were incubated for at least 72 hr. Compound incubation was terminated by (a) fixation and (b) permeabilisation of cells, followed by (c) fluorescence labeling of cell nuclei for cytometric quantification or by immunocytochemistry for microscopic evaluation of cell morphology. The three steps were performed by replacing the solution of the previous step in each well of a 384-well plate by (a) 30 microl PBS (phosphate buffered saline) containing 5% PFA (paraformaldehyde), (b) 30 microl PBS containing 0.2% TritonX-100 and (c) 10 microl PBS containing Hoechst-33342 for cytometry or Hoechst-33342, FITC-(fluorescein isothiocyanate-)labeled alpha-tubulin antibodies and TRITC-(tetramethylrhodamine isothiocyanate-)labeled phalloidin for microscopy. Solutions were incubated for 15 (a,b) and 30 min (c) in the dark at room temperature. Cells were washed twice between each step with 30 microl PBS. The assay system was miniaturized and adapted to automated workflow using liquid-handling robotics.
Cell line-specific cytotoxicity was quantified by counting the number of Hoechst labeled nuclei per well of a 384-well plate using a plate cytometer. Data obtained with the cytometer was analysed using standard data analysis software. […]
The examination of the antiproliferative activity against human colon carcinoma cells HCT116 was carried out in analogy to example 203. […] Compounds of the present invention have potent antiproliferative acivity against human colon carcinoma cells as shown for HCT116 in Table 6.

With `CCOC(=O)c1c(C)nc2c(c(N3CCN(C(c4ccc(F)cc4)c4ccc(F)cc4)CC3)nc(=O)n2-c2ccccc2)c1-c1ccccc1` [Example 157] the “Normalized Wnt pathway inhibitory activity” value ([1]; 0.005 microM) was 0.9895, the “Normalized Wnt pathway inhibitory activity” value ([1]; 0.015 microM) was 1.0328 and the “Normalized Wnt pathway inhibitory activity” value ([1]; 0.137 microM) was 0.6610. The “Normalized Wnt pathway inhibitory activity” value ([1]; 0.412 microM) was 1.2550, the “Normalized Wnt pathway inhibitory activity” value ([1]; 1.235 microM) was 0.6557 and the “Normalized Wnt pathway inhibitory activity” value ([1]; 3.704 microM) was 0.3888. The “Normalized Wnt pathway inhibitory activity” value ([1]; 11.111 microM) was 0.3733, the “Normalized Wnt pathway inhibitory activity” value ([1]; 33.333 microM) was 0.1933 and the “Normalized Wnt pathway inhibitory activity” value ([1]; 100.000 microM) was 0.1651. For the same compound, the IC50 ([1]; Homo sapiens, HEK-293T, 6xTCF-luciferase, 5nM - 100 microM, 24 h incubation, read-out: IC50 of the Wnt pathway inhibitory activity) was 1900 ± 900 nM, the “Normalized cell count (HS68)” value ([2]; 0.005 microM) was 1 and the “Normalized cell count (HS68)” value ([2]; 0.015 microM) was 1.092. The “Normalized cell count (HS68)” value ([2]; 0.046 microM) was 1.081, the “Normalized cell count (HS68)” value ([2]; 0.137 microM) was 1.128 and the “Normalized cell count (HS68)” value ([2]; 0.412 microM) was 1.062. The “Normalized cell count (HS68)” value ([2]; 1.235 microM) was 1.132, the “Normalized cell count (HS68)” value ([2]; 3.704 microM) was 1.18 and the “Normalized cell count (HS68)” value ([2]; 11.111 microM) was 1.167. For the same compound, the “Normalized cell count (HS68)” value ([2]; 33.333 microM) was 1.2661, the “Normalized cell count (HS68)” value ([2]; 100.000 microM) was 1.294 and the “Normalized cell count (HCT 116)” value ([3]; 0.005 microM) was 1. The “Normalized cell count (HCT 116)” value ([3]; 0.015 microM) was 1.101, the “Normalized cell count (HCT 116)” value ([3]; 0.046 microM) was 1.031 and the “Normalized cell count (HCT 116)” value ([3]; 0.137 microM) was 1.151. The “Normalized cell count (HCT 116)” value ([3]; 0.412 microM) was 1.072, the “Normalized cell count (HCT 116)” value ([3]; 1.235 microM) was 0.9399 and the “Normalized cell count (HCT 116)” value ([3]; 3.704 microM) was 0.8282. The “Normalized cell count (HCT 116)” value ([3]; 11.111 microM) was 0.7256, the “Normalized cell count (HCT 116)” value ([3]; 33.333 microM) was 0.3684 and the “Normalized cell count (HCT 116)” value ([3]; 100.000 microM) was 0.2263.
